# Values joined by “and” are separate entries in the source; they are usually repeats but may differ in a detail not shown here. Equal values may be shown once.
# Experiments:
# HGC27-R cells [1] = test: Muse Ki67 cell proliferation assay; format: cell-based, human; settings: for percentage of Ki67+ cells: combined with PTX (10 µM compound; 6 µM AM630)
# Source text: (§1) After the specified drug treatments, the cells were processed with the Muse Ki67 cell proliferation kit, which identified actively proliferating cells based on the expression of Ki67, a nuclear protein present in the active phases of the cell cycle (G1, S, G2, and M phases) and absent in the resting G0 phase. The Muse Ki67 Proliferation Assay was used with the Guava Muse Cell Analyzer according to the manufacturer’s instructions (Luminex Corporation, Austin, USA). Briefly, the cells were stained after fixation and permeabilization procedures, using Hu Ki67 or Hu IgG1 control fluorochrome-conjugated antibodies to distinguish Ki67(+) or Ki67(-) cells, respectively. The software provided the percentage of both Ki67(+) and Ki67(-) cells.
# HGC27-R cells [2] = test: ROS determination assay (DCF-DA); format: cell-based, human; settings: 1 µM, 48 h, vs untreated cells
# Experimental: (§2) For ROS analysis the procedure described in [26] was adapted. […] After the incubation, all the samples were incubated for 30 minutes at 37°C in the dark with 50 µM 2’,7’-dichlorofluorescein diacetate, DCF-DA.
# (§3) Cells were then washed, detached with trypsin/EDTA solution, centrifuged at 12,000 g for 10 min and re-suspended in1mL PBS. At least 10.000 total events were acquired using an Attune Nxt Acoustic Focusing Cytometer (Life Technologies Corporation) equipped with a blue laser (488 nm). Analysis was performed and data were visualized using Attune™ NxT v2.6 Software. The percentage of green fluorescent cells and the green fluorescence median were measured on a mono-parametric histogram based on DCF-DA fluorescence.
# HGC27-S cells [3] = test: ROS determination assay (DCF-DA); format: cell-based, human; settings: 1 µM, 48 h, vs untreated cells
# Experimental: as §2, §3
# NCI-N87 cells = test: Muse Ki67 cell proliferation assay; format: cell-based, human
# Source text: as §1
# CB2R = CB2R affinity (literature values); format: binding; settings: CB2R vs CB1R
# HGC27-S cells [4] = test: VEGFA in cell culture medium (ELISA); format: cell-based, human; settings: 10 µM, 48 h, untreated 3.82
# Experimental: The amount of VEGFA secreted in the culture medium by HGC27-S/R and AGS treated cells was measured using a highly sensitive Enzyme-Linked Immunosorbent Assay (ELISA), Quantikine Kit ELISA (R&D Systems, Minneapolis, MN, USA), according to the manufacturer’s instructions. The measured values were normalized to the number of cells.
# NCI-N87_LUC cell line [5] = test: Mouse model by intraperitoneal NCI-N87_LUC inoculation, tumor growth by IVIS; format: in vivo, CD1-nude female mice; settings: for BLI measurement, individual animals: listed as FI-5; for tumor volume vs control group (vehicle): day 41
# Experimental: EighteenCD1-nude female mice(Charles River Laboratories International, Inc.) were intraperitoneally injected with the NCI-N87 cell line, stable transfected with the luciferase gene (NCl-N87_LUC) at a concentration of 2 × 10^6/100µL cells. Experimental groups and treatments are described in the table below (Table 1). Two concentrations of the CC48 molecule, 10 and 20 mg/Kg, were tested in two experimental groups. A third group was treated with the vehicle, consisting of20% DMSO, 10% Cyclodextrin and distilled water. […] The staff involved in the study recorded all the observations on recording forms. The data concerning animals’ body weight, clinical signs, feed intake and TP intake were recorded on the experimental register. All the corrections on data collection forms were made according to the Test Facility SOPs. All derived values, of registered tumor volumes, which are reported in the Tables S2 and S3 and relative graphs, such as mean and standard deviation, represent the rounded-up results of calculation performed with Microsoft Excel. Dunnett’s multiple comparison statistical test was applied.
# NCI-N87_LUC cell line [6] = test: Ki67 immunohistochemistry of tumor explants; format: in vivo, CD1-nude female mice; settings: GP2/GP3 (10 and 20 mg/kg); vehicle 35%
# Experimental: Tissue blocks fixed in formalin and embedded in paraffin were obtained from the explants of the tumor masses of each specimen. Sections stained with hematoxylin and eosin (H&E) were reviewed by a pathologist to confirm the adequacy of the sample, and to evaluate the morphologic and/or pathological characteristics of each sample. […] IHC analysis was carried out in sections after deparaffinization for 30 min and then rehydration in grades of alcohol. Antigen retrieval was performed at 90 °C for 20 min with Tris-borate-EDTA Buffer. To assess the Ki67, IHC was again carried out on all cases on paraffin-embedded sections using an anti-Ki67 Ab diluted 1:100 (Mib-1; DAKO) following the manufacturer’s instructions.
# [7] = Body weight, serum biochemistry and urinalysis in treated mice; settings: GP2 and GP3 (10 and 20 mg/kg)
# Experimental: All the animals were fed ad libitum with complete mouse feed, and water was provided ad libitum. The body weight for each animal was recorded weekly, starting from day 0 until the end of the study.
# Physical observations of health status, including visual checks on the mice general appearance (e.g. fur and activity levels/responsiveness), were made daily. On day 45, the animals were individually housed in metabolic cages for 24 h, with free access to water and food, in order to perform urine collection and urinalysis. Immediately before metabolic cage housing, animals were subjected to a water load (10 mL/kg by oral gavage) in order to allow urine volume normalization. In addition, blood samples were taken from the submandibular vein after isoflurane anesthesia and before sacrifice at the end of the study period. The blood was collected in Eppendorf tubes and then centrifuged at about 8,000 rpm for 15 min at 4 °C for serum collection.
# [8] = NCI-N87, single treatment (10 µM compound; 2 nM PTX), control 78.2%
# [9] = representative flow cytometry chart, 48 h, 10 µM CC48, PTX, single or combined as labelled
smiles,measurement,setting,value
"COc1ccc(C(=O)c2c(C)n(CCN3CCOCC3)c3cc(I)ccc23)cc1 [AM630, reference compound]",percentage of Ki67+ cells,HGC27-R cells [1],51.3%
same,ROS production,HGC27-R cells [2],induced an increase in ROS production
same,intracellular ROS production,HGC27-S cells [3],significant increase in intracellular ROS production
CCCCCNc1ccccc1C(=O)NC12CC3CC(CC(C3)C1)C2 [ASF151],percentage of Ki67+ cells,NCI-N87 cells; [8],68.3%
same,ROS production,HGC27-R cells [2],induced an increase in ROS production
O=C(NC12CC3CC(CC(C3)C1)C2)c1ccccc1OCc1ccccc1 [CC48],fold higher affinity for CB2R compared to CB1R,CB2R,16 fold
same,percentage of Ki67+ cells,HGC27-R cells [1],67.9%
same,Ki67(+) cells,HGC27-R cells [1]; [9],84.00%
same,Ki67(-) cells,HGC27-R cells [1]; [9],16.00%
same,percentage of Ki67+ cells,"NCI-N87 cells; NCI-N87, cotreatment with PTX, PTX alone 68.1%",59.9%
same,percentage of Ki67+ cells,NCI-N87 cells; [8],60.9%
same,intracellular ROS production,HGC27-S cells [3],significant increase in intracellular ROS production
same,VEGFA secretion in culture medium,HGC27-S cells [4],2.6 pg/mL/cell
same,"BLI measurement, group MEAN","NCI-N87_LUC cell line [5]; GP2 10mg/kg, DAY 5, n 5 (outlier ID 7 excluded)","1,45E+05"
same,"BLI measurement, individual animals","NCI-N87_LUC cell line [5]; GP2 10mg/kg, DAY 5","1,32E+06 and 5,58E+05 and 1,13E+05 and 4,14E+04 and 9,93E+03 and 3,23E+03"
same,"BLI measurement, group MEAN","NCI-N87_LUC cell line [5]; GP2 10mg/kg, DAY 7, n 5","1,29E+05"
same,"BLI measurement, individual animals","NCI-N87_LUC cell line [5]; GP2 10mg/kg, DAY 7","1,55E+06 and 5,41E+05 and 7,10E+04 and 2,79E+04 and 3,30E+03 and 2,39E+03"
same,"BLI measurement, group MEAN","NCI-N87_LUC cell line [5]; GP2 10mg/kg, DAY 10, n 5","1,07E+05"
same,"BLI measurement, individual animals","NCI-N87_LUC cell line [5]; GP2 10mg/kg, DAY 10","1,30E+06 and 4,73E+05 and 4,20E+04 and 1,70E+04 and 2,56E+03 and 2,69E+03"
same,"BLI measurement, group MEAN","NCI-N87_LUC cell line [5]; GP2 10mg/kg, DAY 14, n 5","1,83E+05"
same,"BLI measurement, individual animals","NCI-N87_LUC cell line [5]; GP2 10mg/kg, DAY 14","7,07E+05 and 8,53E+05 and 3,80E+04 and 1,58E+04 and 2,68E+03 and 3,22E+03"
same,"BLI measurement, group MEAN","NCI-N87_LUC cell line [5]; GP2 10mg/kg, DAY 17, n 5","2,73E+05"
same,"BLI measurement, individual animals","NCI-N87_LUC cell line [5]; GP2 10mg/kg, DAY 17","8,99E+05 and 1,29E+06 and 6,23E+04 and 1,12E+04 and 1,95E+03 and 1,85E+03"
same,"BLI measurement, group MEAN","NCI-N87_LUC cell line [5]; GP2 10mg/kg, DAY 24, n 5","3,18E+05"
same,"BLI measurement, individual animals","NCI-N87_LUC cell line [5]; GP2 10mg/kg, DAY 24","1,09E+06 and 1,51E+06 and 6,35E+04 and 1,11E+04 and 2,24E+03 and 2,96E+03"
same,"BLI measurement, group MEAN","NCI-N87_LUC cell line [5]; GP2 10mg/kg, DAY 31, n 5","3,12E+05"
same,"BLI measurement, individual animals","NCI-N87_LUC cell line [5]; GP2 10mg/kg, DAY 31","1,51E+06 and 1,43E+06 and 1,11E+05 and 1,60E+04 and 3,40E+03 and 3,65E+03"
same,"BLI measurement, group MEAN","NCI-N87_LUC cell line [5]; GP2 10mg/kg, DAY 35, n 5","2,44E+05"
same,"BLI measurement, individual animals","NCI-N87_LUC cell line [5]; GP2 10mg/kg, DAY 35","2,93E+06 and 1,06E+06 and 1,41E+05 and 1,56E+04 and 3,01E+03 and 3,50E+03"
same,"BLI measurement, group MEAN","NCI-N87_LUC cell line [5]; GP2 10mg/kg, DAY 38, n 5","4,60E+04"
same,"BLI measurement, individual animals","NCI-N87_LUC cell line [5]; GP2 10mg/kg, DAY 38","4,74E+06 and 1,04E+05 and 1,11E+05 and 9,13E+03 and 2,90E+03 and 2,69E+03"
same,"BLI measurement, group MEAN","NCI-N87_LUC cell line [5]; GP2 10mg/kg, DAY 41, n 5","2,12E+05"
same,"BLI measurement, individual animals","NCI-N87_LUC cell line [5]; GP2 10mg/kg, DAY 41","3,93E+06 and 8,93E+05 and 1,54E+05 and 9,95E+03 and 3,19E+03 and 2,28E+03"
same,tumor volume vs control group (vehicle),"NCI-N87_LUC cell line [5]; GP2, 10 mg/kg IP every other day, p < 0.01",substantial and significant decrease in tumor volume
same,"BLI measurement, group MEAN","NCI-N87_LUC cell line [5]; GP3 20mg/kg, DAY 5, n 5 (outlier ID 13 excluded)","2,03E+05"
same,"BLI measurement, individual animals","NCI-N87_LUC cell line [5]; GP3 20mg/kg, DAY 5","1,03E+06 and 8,12E+05 and 1,11E+05 and 7,63E+04"
same,"BLI measurement, group MEAN","NCI-N87_LUC cell line [5]; GP3 20mg/kg, DAY 7, n 5","1,10E+05"
same,"BLI measurement, individual animals","NCI-N87_LUC cell line [5]; GP3 20mg/kg, DAY 7","7,47E+05 and 4,61E+05 and 2,67E+04 and 5,08E+04"
same,"BLI measurement, group MEAN","NCI-N87_LUC cell line [5]; GP3 20mg/kg, DAY 10, n 5","8,98E+04"
same,"BLI measurement, individual animals","NCI-N87_LUC cell line [5]; GP3 20mg/kg, DAY 10","3,56E+05 and 3,68E+05 and 3,53E+04 and 3,80E+04"
same,"BLI measurement, group MEAN","NCI-N87_LUC cell line [5]; GP3 20mg/kg, DAY 14, n 5","1,18E+05"
same,"BLI measurement, individual animals","NCI-N87_LUC cell line [5]; GP3 20mg/kg, DAY 14","1,23E+06 and 5,29E+05 and 3,27E+04 and 1,72E+04"
same,"BLI measurement, group MEAN","NCI-N87_LUC cell line [5]; GP3 20mg/kg, DAY 17, n 5","1,51E+05"
same,"BLI measurement, individual animals","NCI-N87_LUC cell line [5]; GP3 20mg/kg, DAY 17","1,63E+06 and 7,10E+05 and 2,61E+04 and 1,16E+04"
same,"BLI measurement, group MEAN","NCI-N87_LUC cell line [5]; GP3 20mg/kg, DAY 24, n 5","2,46E+05"
same,"BLI measurement, individual animals","NCI-N87_LUC cell line [5]; GP3 20mg/kg, DAY 24","1,67E+06 and 1,15E+06 and 3,46E+04 and 3,03E+04"
same,"BLI measurement, group MEAN","NCI-N87_LUC cell line [5]; GP3 20mg/kg, DAY 31, n 5","2,64E+05"
same,"BLI measurement, individual animals","NCI-N87_LUC cell line [5]; GP3 20mg/kg, DAY 31","1,22E+06 and 1,26E+06 and 2,79E+04 and 1,85E+04"
same,"BLI measurement, group MEAN","NCI-N87_LUC cell line [5]; GP3 20mg/kg, DAY 35, n 5","3,58E+05"
same,"BLI measurement, individual animals","NCI-N87_LUC cell line [5]; GP3 20mg/kg, DAY 35","2,08E+06 and 1,71E+06 and 4,56E+04 and 2,63E+04"
same,"BLI measurement, group MEAN","NCI-N87_LUC cell line [5]; GP3 20mg/kg, DAY 38, n 5","2,00E+05"
same,"BLI measurement, individual animals","NCI-N87_LUC cell line [5]; GP3 20mg/kg, DAY 38","2,42E+06 and 9,14E+05 and 3,50E+04 and 4,29E+04"
same,"BLI measurement, group MEAN","NCI-N87_LUC cell line [5]; GP3 20mg/kg, DAY 41, n 5","2,00E+04"
same,"BLI measurement, individual animals","NCI-N87_LUC cell line [5]; GP3 20mg/kg, DAY 41","1,34E+06 and 3,58E+04 and 3,11E+04 and 2,06E+04"
same,tumor volume vs control group (vehicle),"NCI-N87_LUC cell line [5]; GP3, 20 mg/kg IP every other day, p < 0.001",statistically significant difference in the size of the tumor mass
same,percentage of Ki67-stained nuclei in tumor,NCI-N87_LUC cell line [6],15–20%
same,body weight vs vehicle,[7],No statistically significant differences were observed
same,"serum AST, ALT, Cre, UREA and GFR vs vehicle",[7],No statistically significant differences in biochemical results

# — article PMC12265377, “CC48 a new CB2R agonist/FAAH inhibitor dual drug blocks gastric cancer progression and overcomes paclitaxel resistance” (Journal of Experimental & Clinical Cancer Research : CR, 2025)
